The record followed here is patent US20260102501A1, “ANTI-CANCER NUCLEAR HORMONE RECEPTOR-TARGETING COMPOUNDS” (Nuvation Bio Inc., priority 2022, published 2026).

Broadly, the IC50 is the concentration that inhibits the measured activity by half.

Changes are numbered by the printed parent chain. Counter-ions that a name gives are not always drawn. Like-named read-outs stand apart in the source and are kept apart here.

For one assay, the system named is LNCap cells. Nature of the assay: Cell viability assay (CellTiterGlo). It is filed as cell-based. The conditions noted are these: Homo sapiens, 144 h.
The next assay has as its system T47D cells. The assay is described as follows: Cell viability assay (CellTiterGlo). The format is cell-based. As to conditions: Homo sapiens, 144 h. (In general: ATP-based viability assays read luminescence as a measure of living cells.)
The subject of the next assay is IEC6 cells. The assay is described as follows: Cell viability assay (CellTiterGlo). The conditions noted are these: Rattus norvegicus, IEC-6, 144 h, read-out: IEC-6 (IC50, nM).
Assay [1] has as its target T1, AR (cytosol from LnCaP cells) (Homo sapiens, UniProt P10275, T878A).
T1 sequence (P10275 1-920 T878A): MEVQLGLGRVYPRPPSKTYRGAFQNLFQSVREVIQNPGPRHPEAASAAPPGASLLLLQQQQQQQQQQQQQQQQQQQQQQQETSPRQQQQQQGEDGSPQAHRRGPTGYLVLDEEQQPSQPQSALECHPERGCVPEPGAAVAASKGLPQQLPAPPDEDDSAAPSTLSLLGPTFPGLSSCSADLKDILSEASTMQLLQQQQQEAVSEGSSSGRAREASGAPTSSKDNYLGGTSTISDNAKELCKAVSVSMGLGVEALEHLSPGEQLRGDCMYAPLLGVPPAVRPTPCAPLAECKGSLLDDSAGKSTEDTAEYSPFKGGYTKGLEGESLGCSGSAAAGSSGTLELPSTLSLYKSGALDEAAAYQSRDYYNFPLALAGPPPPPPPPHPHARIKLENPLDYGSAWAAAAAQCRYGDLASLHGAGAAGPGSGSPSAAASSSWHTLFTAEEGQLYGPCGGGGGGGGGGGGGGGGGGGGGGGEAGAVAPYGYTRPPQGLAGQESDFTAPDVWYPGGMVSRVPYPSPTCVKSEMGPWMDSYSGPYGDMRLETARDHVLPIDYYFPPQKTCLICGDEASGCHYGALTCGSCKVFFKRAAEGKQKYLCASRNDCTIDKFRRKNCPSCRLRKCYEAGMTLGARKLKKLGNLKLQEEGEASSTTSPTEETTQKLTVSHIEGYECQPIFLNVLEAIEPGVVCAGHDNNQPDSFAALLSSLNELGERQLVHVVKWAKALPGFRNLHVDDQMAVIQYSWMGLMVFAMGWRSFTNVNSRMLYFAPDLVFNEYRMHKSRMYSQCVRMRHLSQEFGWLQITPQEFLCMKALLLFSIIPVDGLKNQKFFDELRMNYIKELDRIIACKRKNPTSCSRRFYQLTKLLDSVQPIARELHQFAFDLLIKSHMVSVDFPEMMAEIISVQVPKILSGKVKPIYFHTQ
Nature of the assay: AR binding assay (3H-R1881 displacement).
Protocol: The plate was then centrifuged at 3000 rpm for 30 minutes at 4° C.

Assay [2] has as its target T2, full-length androgen receptor (HEK293 cells stably expressing) (Homo sapiens, UniProt P10275).
T2 sequence (P10275 1-920): T1 sequence (P10275 1-920 T878A) with A878T
Nature of the assay: AR antagonism assay (luciferase reporter).
Protocol: AR antagonism assay: To evaluate AR antagonist activity, test compound was added to the assay plate (top dose 10 μM, 3 fold serial dilution, 10 point dose response). HEK293 cells stably expressing the full-length androgen receptor were seeded at a density of 20000 cells/well in the assay plate. The assay plate was then incubated at room temperature for 10 minutes and at 37° C. 5% CO2 for 20 minutes. Testosterone was added to the assay plate at 1 nM final concentration and the assay plate incubated at 37° C., 5% CO2 for 20 h. […] Steady-glo was added to the assay plate and mixed at room temperature for 20 minutes on an orbital shaker, before reading out on the En Vision plate reader.

For assay [3], the target named is T3, ligand binding domain of the glucocorticoid receptor (HEK293 cells stably expressing) (Homo sapiens, UniProt P04150).
T3 sequence (P04150 524-758 limits assumed): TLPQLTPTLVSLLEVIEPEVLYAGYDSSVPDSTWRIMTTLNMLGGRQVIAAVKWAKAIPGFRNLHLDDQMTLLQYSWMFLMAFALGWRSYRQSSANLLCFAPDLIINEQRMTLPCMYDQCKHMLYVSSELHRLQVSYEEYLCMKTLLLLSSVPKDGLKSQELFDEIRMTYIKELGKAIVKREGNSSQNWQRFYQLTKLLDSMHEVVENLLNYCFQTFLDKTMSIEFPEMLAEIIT
The assay is described as follows: GR antagonism assay (luciferase reporter). Background: In a reporter assay the amount or activity of a reporter protein is the signal.

The target in assay [4] is T4, Progesterone PR-B receptors from human breast carcinoma T47D cells (Homo sapiens, UniProt P06401).
T4 sequence (P06401 1-933): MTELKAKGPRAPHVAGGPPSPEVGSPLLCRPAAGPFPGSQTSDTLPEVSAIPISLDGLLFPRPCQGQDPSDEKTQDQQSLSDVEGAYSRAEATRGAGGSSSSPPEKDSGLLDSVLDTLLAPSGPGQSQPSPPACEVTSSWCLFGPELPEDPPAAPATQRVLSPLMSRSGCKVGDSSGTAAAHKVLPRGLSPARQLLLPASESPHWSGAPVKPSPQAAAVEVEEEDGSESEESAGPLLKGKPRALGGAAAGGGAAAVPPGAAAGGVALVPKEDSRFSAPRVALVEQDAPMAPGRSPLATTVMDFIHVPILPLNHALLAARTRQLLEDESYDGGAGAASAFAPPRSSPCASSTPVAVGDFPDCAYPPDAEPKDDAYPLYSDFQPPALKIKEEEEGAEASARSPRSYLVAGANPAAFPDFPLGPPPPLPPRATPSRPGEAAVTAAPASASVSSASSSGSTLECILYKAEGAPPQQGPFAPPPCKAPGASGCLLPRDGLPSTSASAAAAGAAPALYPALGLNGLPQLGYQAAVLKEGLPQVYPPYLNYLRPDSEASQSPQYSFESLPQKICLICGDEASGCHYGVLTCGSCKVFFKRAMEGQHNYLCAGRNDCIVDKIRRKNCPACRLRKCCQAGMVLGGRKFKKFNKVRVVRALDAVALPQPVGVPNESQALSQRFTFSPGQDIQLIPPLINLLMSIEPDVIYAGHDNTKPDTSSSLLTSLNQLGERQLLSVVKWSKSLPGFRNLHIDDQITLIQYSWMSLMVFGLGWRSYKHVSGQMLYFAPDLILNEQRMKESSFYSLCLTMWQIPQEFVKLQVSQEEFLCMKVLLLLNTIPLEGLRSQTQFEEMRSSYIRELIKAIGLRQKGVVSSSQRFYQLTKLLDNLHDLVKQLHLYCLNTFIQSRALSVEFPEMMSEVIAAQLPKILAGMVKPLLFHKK
Nature of the assay: PR binding assay ([3H] Progesterone displacement).

A further assay relates to 22Rv1 cells. The assay is described as follows: Cell viability assay (CellTiterGlo). The conditions noted are these: Homo sapiens, 22Rv1, 144 h, read-out: 22RV1 (IC50, nM).
The mark [5] stands for this setting: 6 days incubation, CellTiterGlo, read-out: LNCap (IC50).

In the case of `CC[C@@]1(O)C(=O)OCc2c1cc1n(c2=O)Cc2cc3c(CN4CCN(CCCCCCN(C)c5ccc([C@H]6C[C@@]7(C)[C@@H](CC[C@]7(OC(C)=O)C(C)=O)[C@@H]7CCC8=CC(=O)CCC8=C76)cc5)CC4)cccc3nc2-1` [Compound 38, (8S,11R,13S,14S,17R)-17-acetyl-11-(4-((6-(4-(((S)-4-ethyl-4-hydroxy-3,14-dioxo-3,4,12,14-tetrahydro-1H-pyrano[3′,4′:6,7]indolizino[1,2-b]quinolin-10-yl)methyl)piperazin-1-yl)hexyl)(methyl)amino)phenyl)-13-methyl-3-oxo-2,3,6,7,8,11,12,13,14,15,16,17-dodecahydro-1H-cyclopenta[a]phenanthren-17-yl acetate], the IC50 in the assay on LNCap cells (setting [5]) was 101 to 1000 nM; with T47D cells (6 days incubation, CellTiterGlo, read-out: T47D (IC50)) it was 101 to 1000 nM; in the assay on IEC6 cells, above 1000 nM; in assay [1], below 10 nM; in assay [2], above 1000 nM; in assay [3], 10 to 100 nM. Also, the IC50 in assay [4] is below 10 nM.

For the molecule `CC[C@@]1(O)C(=O)OCc2c1cc1n(c2=O)Cc2c-1nc1cc(F)c(C)c3c1c2[C@@H](NC(=O)COC(=O)N1CCN(CCCCCCN(C)c2ccc([C@H]4C[C@@]5(C)[C@@H](CC[C@]5(OC(C)=O)C(C)=O)[C@@H]5CCC6=CC(=O)CCC6=C54)cc2)CC1)CC3` [Compound 42, 2-(((1S,9S)-9-ethyl-5-fluoro-9-hydroxy-4-methyl-10,13-dioxo-2,3,9,10,13,15-hexahydro-1H,12H-benzo[de]pyrano[3′,4′:6,7]indolizino[1,2-b]quinolin-1-yl)amino)-2-oxoethyl 4-(6-((4-((8S,11R,13S,14S,17R)-17-acetoxy-17-acetyl-13-methyl-3-oxo-2,3,6,7,8,11,12,13,14,15,16,17-dodecahydro-1H-cyclopenta[a]phenanthren-11-yl)phenyl)(methyl)amino)hexyl)piperazine-1-carboxylate], the half-inhibitory concentration (IC50) was 101 to 1000 nM in the assay with LNCap cells (setting [5]); 101 to 1000 nM in the assay with 22Rv1 cells; above 1000 nM with IEC6 cells; 10 to 100 nM in assay [1]; 101 to 1000 nM in assay [2]; 10 to 100 nM in assay [3]. Besides, the IC50 in assay [4] was below 10 nM.

Take `CC[C@@]1(O)C(=O)OCc2c1cc1n(c2=O)Cc2cc3c(CN(C)C)c(OC(=O)N4C[C@H](C)N(C(=O)[C@H](CCCNC(N)=O)NC(=O)[C@@H](NCCCCCCN(C)c5ccc([C@H]6C[C@@]7(C)[C@@H](CC[C@]7(OC(C)=O)C(C)=O)[C@@H]7CCC8=CC(=O)CCC8=C76)cc5)C(C)C)C[C@H]4C)ccc3nc2-1` [Compound 35]: the concentration for half-maximal inhibition (IC50) in the assay on LNCap cells (read-out: LNCap (IC50, nM)) is above 1000 nM; with T47D cells (read-out: T47D (IC50, nM)) it was 101 to 1000 nM; in the assay on IEC6 cells it was above 1000 nM; in assay [1] it was 10 to 100 nM; in assay [2], above 1000 nM; in assay [3] it was 10 to 100 nM. The IC50 in assay [4] was below 10 nM.

Take `CC[C@@]1(OC(=O)N2CCN(CCCCCCN(C)c3ccc([C@H]4C[C@@]5(C)[C@@H](CC[C@]5(OC(C)=O)C(C)=O)[C@@H]5CCC6=CC(=O)CCC6=C54)cc3)CC2)C(=O)OCc2c1cc1n(c2=O)Cc2cc3cc(OC)ccc3nc2-1` [Compound 24, (S)-4-Ethyl-9-methoxy-3,14-dioxo-3,4,12,14-tetrahydro-1H-pyrano[3′,4′:6,7]indolizino[1,2-b]quinolin-4-yl 4-(6-((4-((8S,11R,13S,14S,17R)-17-acetoxy-17-acetyl-13-methyl-3-oxo-2,3,6,7,8,11,12,13,14,15,16,17-dodecahydro-1H-cyclopenta[a]phenanthren-11-yl)phenyl)(methyl)amino)hexyl)piperazine-1-carboxylate Formate]: the IC50 was 101 to 1000 nM in the assay with LNCap cells (read-out: LNCap (IC50)), 101 to 1000 nM with T47D cells (read-out: T47D (IC50)) and below 10 nM in assay [4].
